Reference: US20250255301A1, “PESTICIDAL MIXTURES COMPRISING A PYRAZOLE COMPOUND” (BASF SE, priority 2019, published 2025)
Read-outs that look alike come from different tables or passages of the source.

How the values were obtained:
Format in all cases: cell-based
Phytophthora infestans = conditions: single active, 7 days after inoculation
Septoria tritici = test: Activity against leaf blotch on wheat caused by Septoria tritici (microtiter plate); conditions: single active, 7 days after inoculation
Text: Synergism can be described as an interaction where the combined effect of two or more compounds is greater than the sum of the individual effects of each of the compounds. The presence of a synergistic effect in terms of percent control or efficacy, between two mixing partners (X and Y) can be calculated using the Colby equation (Colby, S. R., 1967, Calculating Synergistic and Antagonistic Responses in Herbicide Combinations, Weeds, 15, 20-22): The measured parameters were compared to the growth of the active compound-free control variant (100%) and the fungus-free blank value to determine the relative growth in % of the pathogens in the respective active compounds. These percentages were converted into efficacies. […] The expected efficacies of active compound mixtures were determined using Colby's formula [R. S. Colby, “Calculating synergistic and antagonistic responses of herbicide combinations”, Weeds 15, 20-22 (1967)] and compared with the observed efficacies. […] The stock solutions were mixed according to the ratio, pipetted onto a micro titer plate (MTP) and diluted with water to the stated concentrations. A spore suspension of Septoria tritici in an aqueous biomalt or yeast-bactopeptone-glycerine or DOB solution was then added. The plates were placed in a water vapor-saturated chamber at a temperature of 18° C. Using an absorption photometer, the MTPs were measured at 405 nm 7 days after the inoculation.

Rhynchosporium secalis = test: Activity against Rhynchosporium secalis in the microtiterplate test; conditions: single active, 63 ppm, 7 days after inoculation
Text: Synergism can be described as an interaction where the combined effect of two or more compounds is greater than the sum of the individual effects of each of the compounds. The presence of a synergistic effect in terms of percent control or efficacy, between two mixing partners (X and Y) can be calculated using the Colby equation (Colby, S. R., 1967, Calculating Synergistic and Antagonistic Responses in Herbicide Combinations, Weeds, 15, 20-22): The measured parameters were compared to the growth of the active compound-free control variant (100%) and the fungus-free blank value to determine the relative growth in % of the pathogens in the respective active compounds. These percentages were converted into efficacies. […] The expected efficacies of active compound mixtures were determined using Colby's formula [R. S. Colby, “Calculating synergistic and antagonistic responses of herbicide combinations”, Weeds 15, 20-22 (1967)] and compared with the observed efficacies. […] The stock solutions were mixed according to the ratio, pipetted onto a micro titer plate (MTP) and diluted with water to the stated concentrations. A spore suspension of Rhynchosporium secalis in an aqueous biomalt or yeast-bactopeptone-glycerine or DOB solution was then added. […] Using an absorption photometer, the MTPs were measured at 405 nm 7 days after the inoculation.

Sclerotinia sclerotiorum = test: Activity against Sclerotinia sclerotiorum in the microtiterplate test; conditions: single active, 7 days after inoculation
[1] = system: Colletotrichum orbiculare; test: Activity against Colletotrichum orbiculare in the microtiterplate test; conditions: single active, 7 days after inoculation
Cercospora sojina = test: Activity against Cercospora sojina in the microtiter test; conditions: single active, 7 days after inoculation
Text: Synergism can be described as an interaction where the combined effect of two or more compounds is greater than the sum of the individual effects of each of the compounds. The presence of a synergistic effect in terms of percent control or efficacy, between two mixing partners (X and Y) can be calculated using the Colby equation (Colby, S. R., 1967, Calculating Synergistic and Antagonistic Responses in Herbicide Combinations, Weeds, 15, 20-22): The measured parameters were compared to the growth of the active compound-free control variant (100%) and the fungus-free blank value to determine the relative growth in % of the pathogens in the respective active compounds. These percentages were converted into efficacies. […] The expected efficacies of active compound mixtures were determined using Colby's formula [R. S. Colby, “Calculating synergistic and antagonistic responses of herbicide combinations”, Weeds 15, 20-22 (1967)] and compared with the observed efficacies. […] The stock solutions were mixed according to the ratio, pipetted onto a micro titer plate (MTP) and diluted with water to the stated concentrations. A spore suspension of Cercospora sojina in an aqueous biomalt or yeast-bactopeptone-sodiumacetate solution was then added. The plates were placed in a water vapor-saturated chamber at a temperature of 18° C. Using an absorption photometer, the MTPs were measured at 405 nm 7 days after the inoculation.

Botrytis cinerea = test: Activity against the grey mold Botrytis cinerea in the microtiterplate test; conditions: single active, 7 days after inoculation
Text: Synergism can be described as an interaction where the combined effect of two or more compounds is greater than the sum of the individual effects of each of the compounds. The presence of a synergistic effect in terms of percent control or efficacy, between two mixing partners (X and Y) can be calculated using the Colby equation (Colby, S. R., 1967, Calculating Synergistic and Antagonistic Responses in Herbicide Combinations, Weeds, 15, 20-22): The measured parameters were compared to the growth of the active compound-free control variant (100%) and the fungus-free blank value to determine the relative growth in % of the pathogens in the respective active compounds. These percentages were converted into efficacies. […] The expected efficacies of active compound mixtures were determined using Colby's formula [R. S. Colby, “Calculating synergistic and antagonistic responses of herbicide combinations”, Weeds 15, 20-22 (1967)] and compared with the observed efficacies. […] The stock solutions were mixed according to the ratio, pipetted onto a micro titer plate (MTP) and diluted with water to the stated concentrations. A spore suspension of Botrci cinerea in an aqueous biomalt or yeast-bactopeptone-sodiumacetate solution was then added. The plates were placed in a water vapor-saturated chamber at a temperature of 18° C.

CCN(C(=O)c1cnn(C(C)C(C)C)c1C)c1ccnnc1 (racemic) [Dimpropyridaz, 1-[(1 RS)-1,2-dimethylpropyl]-N-ethyl-5-methyl-N-pyridazin-4-yl-1H-pyrazole-4-carboxamide]
Observed efficacy (Phytophthora infestans; 0.016 ppm): 0%
Observed efficacy (Phytophthora infestans; 0.063 ppm): 4%
Observed efficacy (Septoria tritici; 0.063 ppm): 5%
Observed efficacy (Septoria tritici; 0.25 ppm): 7%
Observed efficacy (Rhynchosporium secalis): 12%
Observed efficacy (Sclerotinia sclerotiorum; 0.25 ppm): 0%
Observed efficacy ([1]; 63 ppm): 14%
Observed efficacy (Cercospora sojina; 0.25 ppm): 0%
Observed efficacy (Cercospora sojina; 63 ppm): 23%
Observed efficacy (Botrytis cinerea; 0.063 ppm): 0%
Observed efficacy (Botrytis cinerea; 0.25 ppm): 1%
Observed efficacy (Botrytis cinerea; 1 ppm): 0%

N#Cc1ccc(Oc2ccc(C(F)(F)C(O)(Cn3ncnc3S)c3ccc(F)cc3F)nc2)cc1 (centres unmarked) [B.5)d), 4-[[6-[2-(2,4-difluorophenyl)-1,1-difluoro-2-hydroxy-3-(5-sulfanyl-1,2,4-triazol-1-yl)propyl]-3-pyridyl]oxy]benzonitrile]
Observed efficacy (Rhynchosporium secalis): 70%

COc1ccnc(C(=O)N[C@@H](C)C(=O)O[C@@H](C)C(c2ccc(F)cc2)c2ccc(F)cc2)c1OC(C)=O [Florylpicoxamid, florylpicoxamid, reference compound]
Observed efficacy (Cercospora sojina; 0.25 ppm): 6%
Observed efficacy (Cercospora sojina; 16 ppm): 61%

CC(C)c1ccc(Cl)cc1CN(C(=O)c1c(C(F)F)nn(C)c1F)C1CC1 [Isoflucypram, isoflucypram, reference compound]
Observed efficacy (Septoria tritici; 0.063 ppm): 40%
Observed efficacy (Botrytis cinerea; 0.25 ppm): 57%

Cc1cc(C(F)(F)F)nn1CC(=O)N1CCC(c2nc(C3=NOC(c4c(F)cccc4F)C3)cs2)CC1 (centres unmarked) [Oxathiapiproline, oxathiapiprolin, reference compound]
Observed efficacy (Phytophthora infestans; 0.016 ppm): 0%
Observed efficacy (Phytophthora infestans; 0.063 ppm): 11%

CON(C(=O)c1cn(C)nc1C(F)F)C(C)Cc1c(Cl)cc(Cl)cc1Cl (centres unmarked) [Pydiflumetofen, pydiflumetofen, reference compound]
Observed efficacy ([1]; 16 ppm): 59%
Observed efficacy (Botrytis cinerea; 0.063 ppm): 42%

pyrapropoyne [reference compound]
Observed efficacy (Sclerotinia sclerotiorum; 1 ppm): 27%
Observed efficacy (Botrytis cinerea; 1 ppm): 26%
